Tested on: HCT-116
Test: Cytotoxicity against human HCT-116 cells incubated for 48 hrs by MTT assay
Format: functional, cell-based
Conditions: HCT-116, 48 h

Which IC50 does the source give for `COC(=O)CCC[C@@H]1C[C@@H]2C[C@@](CCc3ccccc3)(Oc3cc4c(c(O)c32)C(=O)C[C@@H](c2ccccc2)O4)O1` here?
The IC50 was greater than 10 µM.

With `COC(=O)CCC[C@@H]1C[C@@H]2C[C@@](CCc3ccccc3)(Oc3cc4c(c(O)c32)C(=O)C[C@H](c2ccccc2)O4)O1` as the molecule, how does the IC50 read?
Its IC50 is greater than 10 µM.

`O=C1C=CC[C@H](C[C@@H]2C[C@@H]3C[C@@](/C=C/c4ccccc4)(Oc4cc5c(c(O)c43)C(=O)C[C@@H](c3ccccc3)O5)O2)O1` was tested. Which IC50 did it give?
Its IC50 is 7.2 µM.

How did the IC50 turn out when `O=C(O)CCC[C@@H]1C[C@@H]2C[C@@](/C=C/c3ccccc3)(Oc3cc4c(c(O)c32)C(=O)C[C@@H](c2ccccc2)O4)O1` was run?
Its IC50 is greater than 10 µM.

How did the IC50 turn out when `O=C1C=CC[C@H](C[C@@H]2C[C@@H]3C[C@@](CCc4ccccc4)(Oc4cc5c(c(O)c43)C(=O)C[C@@H](c3ccccc3)O5)O2)O1` was run?
Its IC50 is 6.1 µM.

With `O=C(O)CCC[C@@H]1C[C@@H]2C[C@@](/C=C/c3ccccc3)(Oc3cc4c(c(O)c32)C(=O)C[C@H](c2ccccc2)O4)O1` as the molecule, how does the IC50 read?
The IC50 was greater than 10 µM.

For `O=C1C=CC[C@H](C[C@@H]2C[C@@H]3C[C@@](CCc4ccccc4)(Oc4cc5c(c(O)c43)C(=O)C[C@H](c3ccccc3)O5)O2)O1`, which IC50 is on record?
The IC50 was 5.8 µM.

With `O=C1CCC[C@@H]2C[C@H](C[C@](O)(/C=C/c3ccccc3)O2)c2c(cc(O)c3c2O[C@H](c2ccc(O)cc2)CC3=O)O1` as the molecule, how does the IC50 read?
The IC50 was 4.2 µM.

With `O=C1CCC[C@@H]2C[C@H](C[C@](O)(/C=C/c3ccccc3)O2)c2c(cc(O)c3c2O[C@@H](c2ccc(O)cc2)CC3=O)O1` as the molecule, how does the IC50 read?
The IC50 was 4.5 µM.
